Values quoted from earlier work as cited in US20160310431A1, “Three-Phase System for Modified Release of a Non-Steroidal Antiinflammatory” (priority 2013, published 2016).
Like-named read-outs stand apart in the source and are kept apart here.

How the values were obtained:
COX-1 and COX-2 = conditions: COX-1 vs COX-2
[1] = intramuscular administration
[2] = not given; remark: listed apart in the source
[3] = intramuscular administration, single dose of 30 mg

Row | SMILES | metabolized via the liver by conjugation (inactive metabolites) [%] | excreted as a conjugated metabolite (renal excretion) [%] | excreted as the drug without changes (renal excretion) [%] | excreted hydroxylated (renal excretion) [%] | binding to plasma proteins (plasma proteins) [%] | selectivity for COX isoforms (COX-1 and COX-2) | appearance of analgesic effect [1] | duration of analgesic effect [1] [h] | peak of analgesic effect [1] [h] | maximum plasma concentration [2, 3] [µg/mL] | time at which maximum plasma concentration appears [2, 3] [min] | time at which maximum plasma concentration appears ([2]; intravenous administration) [min] | time at which maximum plasma concentration appears ([2]; oral administration, tablets or capsules) [min] | absorption ([2]; orally and parenterally)
1 | O=C(c1ccccc1)c1ccc2n1CCC2C(=O)O (centres unmarked) [Ketorolac] | 21 | 21.9 | 60.2 | 11.5 | 99 | not being selective for any of the isoforms | – | – | – | – | – | – | – | –
2 | O=C(c1ccccc1)c1ccc2n1CCC2C(=O)O (centres unmarked) [Ketorolac tromethamine] | – | – | – | – | – | – | first half hour | 4 to 6 | 1 to 2 | 2.2 | 50 | 5.4 | 180 | rapidly and completely absorbed
